In ChEMBL document CHEMBL2010742, “Phaeosphaerins A-F, cytotoxic perylenequinones from an endolichenic fungus, Phaeosphaeria sp” (J Nat Prod, 2012) one finds IC50, Activity and Drug uptake data, which are given here for eight compounds.

The term pIC50 denotes the IC50 on a negative log10 scale, so that one unit is a factor of ten. A low value points to a large IC50.

pIC50: −log10 of the molar value. The source made the active and inactive calls. No cut-off for these calls is given here.

One data set relates to DU-145. The data set is described as follows: Cytotoxicity against human DU145 cells after 24 hrs by MTT assay. In kind it is functional, cell-based. The following applies: DU-145, 24 h.
The test system of a further data set is PC-3. The data set is described as follows: Cytotoxicity against human PC3 cells after 24 hrs by MTT assay. In kind it is functional, cell-based. The following applies: PC-3, 24 h. A general note: Tetrazolium dyes change colour on reduction, which living cells bring about.
The subject of the next data set is LNCaP. The data set is described as follows: Cytotoxicity against human LNCAP cells after 24 hrs by MTT assay. In kind it is functional, cell-based.
For data set [1], the system named is K562. Description: Cytotoxicity against human K562 cells after 24 hrs by MTT assay. Particulars: K562, 24 h. In kind it is functional, cell-based.
In data set [2] the test system is K562. The data set is described as follows: Induction of ROS production in human K562 cells at 10 uM after 3 hrs by DCF fluorescence analysis. In kind it is functional, cell-based.
Data set [3] concerns K562. Description: Cytotoxicity against human K562 cells treated for 4 hrs followed irradiated with […] light for 1000 seconds by MTT assay. In kind it is functional, cell-based. The following applies: K562, light or radiation study.
A short description of data set [4]: Drug uptake in human MCF7 cell lysosomes at 20 uM after 10 mins by […] staining-based confocal microscopic analysis. In kind it is ADME, Lysosome. Particulars: mcf7, 10 min.

On to `COc1cccc2c1C(=O)c1c(O)c3c(c(O)c1C2=O)C[C@@](O)(C(=O)CO)C[C@@H]3O[C@H]1C[C@H](N)[C@H](O)[C@H](C)O1` [DOXORUBICIN], for which the pIC50 in the data set on DU-145 is 4.63; with PC-3, 4.71; with LNCaP it was 4.80.
On to `COc1c2c3c4c(c(OC)c(=O)c5c(O)cc(OC)c(c6c(OC)cc(O)c(c1=O)c63)c54)[C@@H](C(C)=O)[C@@](C)(O)C2` [HYPOCRELLIN A], for which the pIC50 with K562 [1] was 5.13; in the data set with K562 [3], 6.26. In addition, the outcome in the data set on K562 [2] was Active. Also, the Drug uptake entry in data set [4] was “Active”.
As for `COC1=C2c3c4c5c(c(O)cc(OC)c5c5c(OC)cc(O)c(c35)C1=O)C(=O)[C@@]1(OC)O[C@@H](C)C[C@@]41[C@H]2C(C)=O` [PHAEOSPHAERIN A], the negative-log IC50 (pIC50) in the data set with DU-145 is 4.97; in the data set on PC-3, 5.23; in the data set on LNCaP, 4.97.
For `COC1=C2c3c4c5c(c(O)cc(OC)c5c5c(OC)cc(O)c(c35)C1=O)C(=O)[C@@H](OC)[C@@]41C[C@H](C)O[C@@]21C(C)=O` [PHAEOSPHAERIN B], the pIC50 is 5.02 with DU-145, 5.62 in the data set with PC-3 and 5.57 in the data set on LNCaP.
Take `COC1=C2c3c4c5c(c(O)cc(OC)c5c5c(OC)cc(O)c(c35)C1=O)C(=O)[C@@H](OC)[C@]4(CC(C)O)[C@@H]2C(C)=O` (some centres undefined) [PHAEOSPHAERIN C]: the pIC50 was 4.71 in the data set on K562 [1]; 4.82 in the data set with DU-145; 5.15 in the data set on K562 [3]; 5.21 in the data set with PC-3; 4.84 in the data set with LNCaP. For the same compound, the result in the data set with K562 [2] was Active. In data set [4], the Drug uptake result is recorded as “Active”.
As for `COC1=C2c3c4c5c(c(O)cc(OC)c5c5c(OC)cc(O)c(c35)C1=O)C(=O)[C@@H](OC)[C@@]41C[C@H](C)O[C@]2(O)[C@]1(C)O` [PHAEOSPHAERIN D], the pIC50 in the data set on DU-145 was 4.69; with PC-3 it was 5.01; with LNCaP, 4.60.
On to `COC1=C2c3c4c5c(c(O)cc(OC)c5c5c(OC)cc(O)c(c35)C1=O)C(=O)[C@H](OC)[C@]41C[C@H](C)O[C@@]2(C(C)=O)O1` [PHAEOSPHAERIN E], for which the pIC50 with DU-145 is 4.79; in the data set on PC-3, 5.28; in the data set on LNCaP, 5.00.
With `COC1=C2c3c4c5c(c(O)cc(OC)c5c5c(OC)cc(O)c(c35)C1=O)C(=O)[C@@H](OC)[C@@]41C[C@H](C)O[C@]2(C(C)=O)O1` [PHAEOSPHAERIN F], the results for the pIC50 with DU-145, with PC-3 and in the data set on LNCaP were 4.78, 5.26 and 4.93, respectively.
